In ChEMBL document CHEMBL5108051, “Improving the Antimicrobial Performance of Amphiphilic Cationic Antimicrobial Peptides Using Glutamic Acid Full-Scan and Positive Charge Compensation Strategies” (J Med Chem, 2022):
Calls of active or inactive are those of the source. Bridge positions count the residues as written; N and C are the ends. Square brackets hold non-standard residues; d marks the D form. Peptide text beside a SMILES is read from it. * marks the point of attachment. X1 = CC[C@H](C)CCCCC(=O)*; Dab = NCC[C@H](N)C(=O)O

Key:
Staphylococcus aureus [1] = assay: Antimicrobial activity against Staphylococcus aureus ATCC 25923 assessed as fold increase in MIC in presence of KCl; type: functional
Staphylococcus aureus [2] = assay: Antimicrobial activity against Staphylococcus aureus ATCC 25923 assessed as increase fold in increase MIC in presence of FeCl3; type: functional
Escherichia coli [3] = assay: Bactericidal activity against Escherichia coli ATCC 25922 at 2 times MIC measured after 3 hrs by time-killing kinetics assay; type: functional
Escherichia coli [4] = assay: Bactericidal activity against Escherichia coli ATCC 25922 at 1 times MIC measured after 6 hrs by time-killing kinetics assay; type: functional
[5] = Acute toxicity in BALB/c mouse lung assessed as congestion at 20 to 80 mg/kg, ip administered as single dose measured for 7 days by H and E staining method; type: organism-based; settings: in vivo, 168 h, dose 20-80 mg/kg, time 7 day
[6] = Acute toxicity in BALB/c mouse lung assessed as distortion of alveolar morphology at 20 to 80 mg/kg, ip administered as single dose measured for 7 days by H and E staining method; type: organism-based; settings: in vivo, 168 h, dose 20-80 mg/kg, time 7 day
[7] = Acute toxicity in BALB/c mouse lung assessed as increase in inter-alveolar space at 20 to 80 mg/kg, ip administered as single dose measured for 7 days by H and E staining method; type: organism-based; settings: in vivo, 168 h, dose 20-80 mg/kg, time 7 day
Escherichia coli [8] = assay: Antibiofilm activity against Escherichia coli ATCC 25922 assessed as inhibition of biofilm formation at 4 times MIC measured after 24 hrs by crystal violet staining based assay; type: functional, organism-based
Staphylococcus aureus [9] = assay: Antimicrobial activity against Staphylococcus aureus ATCC 25923 in presence of NaCl; type: functional, organism-based
Staphylococcus aureus [10] = assay: Antimicrobial activity against Staphylococcus aureus ATCC 25923 in presence of KCl; type: functional, organism-based
Staphylococcus aureus [11] = assay: Antimicrobial activity against Staphylococcus aureus ATCC 25923 in presence of MgCl2; type: functional, organism-based
Staphylococcus aureus [12] = assay: Antimicrobial activity against Staphylococcus aureus ATCC 25923 in presence of FeCl3; type: functional, organism-based
Escherichia coli [13] = assay: Antimicrobial activity against Escherichia coli ATCC 25922 in presence of MgCl2; type: functional, organism-based
Escherichia coli [14] = assay: Bactericidal activity against Escherichia coli ATCC 25922 at 2 times MIC measured after 30 mins by time-killing kinetics assay; type: functional; settings: 0.5 h
Escherichia coli [15] = assay: Bactericidal activity against Escherichia coli ATCC 25922 at 1 times MIC measured after 2 hrs by time-killing kinetics assay; type: functional
Escherichia coli [16] = assay: Antibiofilm activity against Escherichia coli ATCC 25922 assessed as inhibition of biofilm formation at 2 times MIC measured after 24 hrs by crystal violet staining based assay; type: functional, organism-based
Staphylococcus aureus [17] = assay: Disruption of membrane integrity in Staphylococcus aureus ATCC 25923 assessed as increase in nucleic acid leakage by measuring PI-uptake level by microplate reader assay; type: functional, organism-based
Escherichia coli [18] = assay: Antibacterial activity against Escherichia coli ATCC 25922 assessed as inhibition of gentamicin resistance development measured after 15 passages in presence of gentamicin by resistance development assay; type: functional, organism-based
Staphylococcus aureus [19] = assay: Antibacterial activity against Staphylococcus aureus ATCC 25923 assessed as inhibition of gentamicin resistance development measured after 15 passages in presence of gentamicin by resistance development assay; type: functional, organism-based
Staphylococcus aureus [20] = assay: Antibacterial activity against Staphylococcus aureus ATCC 25923 assessed as inhibition of rifampin resistance development measured after 15 passages in presence of rifampin by resistance development assay; type: functional, organism-based
[21] = Acute toxicity in BALB/c mouse assessed as pathological changes in lung at 20 to 80 mg/kg, ip administered as single dose measured for 7 days by H and E staining method; type: organism-based; settings: in vivo, 168 h, dose 20-80 mg/kg, time 7 day
Staphylococcus aureus [22] = assay: Antibacterial activity against Staphylococcus aureus ATCC 25923 infected in BALB/C mouse pulmonary infection model assessed as increase in dilation of alveoli in lung at 10 mg/kg, ip after 24 hrs by H and E staining method; type: functional, organism-based
Staphylococcus aureus [23] = assay: Antibacterial activity against Staphylococcus aureus ATCC 25923 infected in BALB/C mouse pulmonary infection model assessed as increase in bacterial killing in lung at 10 mg/kg, ip after 24 hrs by H and E staining method; type: functional, organism-based
HK-2 = assay: Cytotoxicity against human HK-2 cells assessed as reduction in cell viability at 0 to 128 uM incubated for 1 hr by Resazurin cell viability kit; type: toxicity, cell-based; settings: hk-2, 1 h, dose 0-128 µM
Escherichia coli [24] = assay: Antimicrobial activity against Escherichia coli ATCC 25922 assessed as reduction in survival rate in presence of >= 0.02 microg/ml of trypsin measured after 6 hrs; type: functional, organism-based
Escherichia coli [25] = assay: Bactericidal activity against Escherichia coli ATCC 25922 at 2 times MIC measured after 1 hr by time-killing kinetics assay; type: functional
Escherichia coli [26] = assay: Bactericidal activity against Escherichia coli ATCC 25922 at 0.5 times MIC measured after 1 hr by time-killing kinetics assay; type: functional
Cell membrane = assay: Induction of cytoplasmic membrane depolarization in Escherichia coli ATCC 25922 assessed as increase in fluorescence intensity at 4 times MIC measured within 1 min by DiSC3-5 dye based fluorescence method; type: subcellular
[27] = Acute toxicity in BALB/c mouse assessed as mortality at 40 mg/kg, ip measured within 10 mins; type: organism-based; settings: in vivo
[28] = Acute toxicity in BALB/c mouse assessed as abdominal twitching at 10 to 20 mg/kg, ip administered as single dose measured for 7 days; type: organism-based; settings: in vivo, 168 h, dose 10-20 mg/kg, time 7 day
[29] = Acute toxicity in BALB/c mouse assessed as hyper-mobility at 10 to 20 mg/kg, ip administered as single dose measured for 7 days; type: organism-based; settings: in vivo, 168 h, dose 10-20 mg/kg, time 7 day
[30] = Acute toxicity in BALB/c mouse assessed as pathological changes in heart at 10 to 40 mg/kg, ip administered as single dose measured for 7 days by H and E staining method; type: organism-based; settings: in vivo, 168 h, dose 10-40 mg/kg, time 7 day
[31] = Acute toxicity in BALB/c mouse assessed as pathological changes in liver at 10 to 40 mg/kg, ip administered as single dose measured for 7 days by H and E staining method; type: organism-based; settings: in vivo, 168 h, dose 10-40 mg/kg, time 7 day
[32] = Acute toxicity in BALB/c mouse spleen assessed as edema at 10 to 40 mg/kg, ip administered as single dose measured for 7 days by H and E staining method; type: organism-based; settings: in vivo, 168 h, dose 10-40 mg/kg, time 7 day
[33] = Acute toxicity in BALB/c mouse spleen assessed as inflammatory cell infiltration at 10 to 40 mg/kg, ip administered as single dose measured for 7 days by H and E staining method; type: organism-based; settings: in vivo, 168 h, dose 10-40 mg/kg, time 7 day
[34] = Acute toxicity in BALB/c mouse lung assessed as constricted pulmonary alveoli at 10 to 40 mg/kg, ip administered as single dose measured for 7 days by H and E staining method; type: organism-based; settings: in vivo, 168 h, dose 10-40 mg/kg, time 7 day
[35] = Acute toxicity in BALB/c mouse liver assessed as infiltration of inflammatory cells at 10 to 40 mg/kg, ip administered as single dose measured for 7 days by H and E staining method; type: organism-based; settings: in vivo, 168 h, dose 10-40 mg/kg, time 7 day
[36] = Acute toxicity in BALB/c mouse kidney assessed as edema at 10 to 40 mg/kg, ip administered as single dose measured for 7 days by H and E staining method; type: organism-based; settings: in vivo, 168 h, dose 10-40 mg/kg, time 7 day
Escherichia coli [37] = assay: Antimicrobial activity against Escherichia coli ATCC 25922 assessed as reduction in survival rate in presence of 0.02 to 2000 microg/ml of chymotrypsin measured after 6 hrs; type: functional, organism-based

CC[C@H](C)[C@H](NC(=O)[C@@H]1CCCN1C(=O)[C@H](CC(C)C)NC(=O)[C@@H](N)Cc1ccccc1)C(=O)N[C@H](C(=O)N[C@@H](C)C(=O)N[C@@H](CCCCN)C(=O)N[C@@H](CC(C)C)C(=O)N[C@@H](CC(C)C)C(=O)N[C@@H](CO)C(=O)NCC(=O)N[C@@H](CC(C)C)C(=O)N[C@@H](CC(C)C)C(N)=O)C(C)C (H-FLPIVAKLLSGLL-NH2)
active: Activity (Escherichia coli [8])
Toxic: Activity [5] | Activity [6] | Activity [7]
100%: Activity (Escherichia coli [3]) | Activity (Escherichia coli [4])
2: fold change (FC) (Staphylococcus aureus [1]) | fold change (FC) (Staphylococcus aureus [2])

CC(C)C[C@H](NC(=O)[C@H](CC(C)C)NC(=O)[C@H](CCC(=O)O)NC(=O)[C@H](CCCCN)NC(=O)[C@H](CC(C)C)NC(=O)[C@H](CC(C)C)NC(=O)[C@H](CCCCN)NC(=O)[C@H](C)NC(=O)[C@@H](NC(=O)[C@H](CCCCN)NC(=O)[C@@H]1CCCN1C(=O)[C@H](CC(C)C)NC(=O)[C@@H](N)Cc1ccccc1)C(C)C)C(N)=O (H-FLPKVAKLLKELL-NH2)
active: Activity (Staphylococcus aureus [9]) | Activity (Staphylococcus aureus [10]) | Activity (Staphylococcus aureus [11]) | Activity (Staphylococcus aureus [12]) | Activity (Escherichia coli [13]) | Activity (Escherichia coli [16]) | Activity (Staphylococcus aureus [17]) | Activity (Escherichia coli [18]) | Activity (Staphylococcus aureus [19]) | Activity (Staphylococcus aureus [20]) | Activity (Staphylococcus aureus [22]) | Activity (Staphylococcus aureus [23])
Non-Toxic: Activity [21]
100%: Activity (Escherichia coli [14]) | Activity (Escherichia coli [15])

CC[C@H](C)CCCCC(=O)N[C@@H](CCN)C(=O)N[C@H](C(=O)N[C@@H](CCN)C(=O)N[C@H]1CCNC(=O)[C@H]([C@@H](C)O)NC(=O)[C@H](CCN)NC(=O)[C@H](CCN)NC(=O)[C@H](CC(C)C)NC(=O)[C@@H](Cc2ccccc2)NC(=O)[C@H](CCN)NC1=O)[C@@H](C)O (X1-[Dab]T[Dab][Dab][Dab][dF]L[Dab][Dab]T; lactam 4-C)
Non-Toxic: Activity (HK-2) | Activity [30] | Activity [31] | Activity [32] | Activity [33] | Activity [34] | Activity [35] | Activity [36]
active: Activity (Escherichia coli [24]) | Activity (Cell membrane) | Activity (Escherichia coli [37])
Toxic: Activity [27] | Activity [28] | Activity [29]
100%: Activity (Escherichia coli [25]) | Activity (Escherichia coli [26])
